Values quoted from earlier work in patent US20120015899A1 (priority 2008, published 2012).

Cl.Nc1ccn([C@@H]2O[C@H](CO)[C@@H](O)C2(F)F)c(=O)n1 [Gemcitabine, Cytidine, 2′-deoxy-2′,2′-difluoro-, monohydrochloride]
pKa: 3.58
